Biological target: recombinant human SYK (GST-hSYK fusion protein) (Homo sapiens, UniProt P43405)
Assay: biochemical
Conditions: hSYK Activity, table after Example 66
Source text: Homogeneous Time-Resolved Fluorescence (HTRF) Assay for the Recombinant Human SYK Enzyme:

IC50	Structure (SMILES)
< 100 nM	CC(=O)NC1(c2ncc(-c3cc(C)cc(Nc4nccc(C(F)(F)F)n4)c3)s2)COC1 [66-1]

Same assay, conditions: rhSYK Activity (IC50), recombinant human GST-SYK 5 pM, ATP 25 μM, biotinylated substrate peptide 250 nM, HTRF, 10-dose titration

IC50	Structure (SMILES)
100 to 1000 nM	CC(=O)Nc1cc(Nc2nccc(OC3CCN(C(=O)OC(C)(C)C)CC3)n2)cc(-c2cnc(C3(O)CCC3)s2)c1 [109(1), tert-butyl 4-[2-({3-(acetylamino)-5-[2-(1-hydroxycyclobutyl)-1,3-thiazol-5-yl]phenylamino)pyrimidin-4-yl]oxy}piperidine-1-carboxylate]
< 100 nM	CC(=O)Nc1cc(Nc2nccc(OC3CCNCC3)n2)cc(-c2cnc(C3(O)CCC3)s2)c1 [109(2), N-(3-[2-(1-hydroxycyclobutyl)-1,3-thiazol-5-yl]-5-{[4-(piperidin-4-yloxy)pyrimidin-2-yl]-amino}phenyl)acetamide]
< 100 nM	Cc1cc(Nc2nccc(C3CC3)n2)cc(-c2cnc([C@]3(O)CC[C@@H](C(=O)O)CC3)s2)c1 [110(1), Cis-4-(5-(3-[(4-cyclopropylpyrimidin-2-yl)amino]-5-methylphenyl)-1,3-thiazol-2-yl)-4-hydroxycyclohexanecarboxylic acid]

Same assay, conditions: rhSYK Activity, Table 54B

IC50	Structure (SMILES)
< 100 nM	Cc1cc(Nc2nccc(C(F)(F)F)n2)cc(-c2cnc(C3(O)CCN(CC(N)=O)C3)s2)c1 (centres unmarked) [54B-20]
< 100 nM	Cc1cc(Nc2nccc(C(F)(F)F)n2)cc(-c2cnc(C3(O)CCN(C(=O)CO)C3)s2)c1 (centres unmarked) [54B-21]
< 100 nM	Cc1cc(Nc2nccc(C(F)(F)F)n2)cc(-c2cnc(C3(O)CCN(CC(=O)O)C3)s2)c1 (centres unmarked) [54B-22]
< 100 nM	Cc1cc(Nc2nccc(C(F)(F)F)n2)cc(-c2cnc(C3(O)CCN(C(=O)C(N)=O)C3)s2)c1 (centres unmarked) [54B-23]
< 100 nM	COC(=O)CN1CCC(O)(c2ncc(-c3cc(C)cc(Nc4nccc(C(F)(F)F)n4)c3)s2)C1 (centres unmarked) [54B-24]
< 100 nM	Cc1cc(Nc2nccc(C(F)(F)F)n2)cc(-c2cnc(C3(O)CCN(C(=O)C(=O)O)C3)s2)c1 (centres unmarked) [54B-25]
< 100 nM	Cc1cc(Nc2nccc(C(F)(F)F)n2)cc(-c2cnc(C3(O)CCN(C(=O)CC(N)=O)C3)s2)c1 (centres unmarked) [54B-26]
< 100 nM	COC(=O)C(=O)N1CCC(O)(c2ncc(-c3cc(C)cc(Nc4nccc(C(F)(F)F)n4)c3)s2)C1 (centres unmarked) [54B-27]
< 100 nM	Cc1cc(Nc2nccc(C(F)(F)F)n2)cc(-c2cnc(C3(O)CCN(C(=O)C(O)CO)C3)s2)c1 (centres unmarked) [54B-28]
< 100 nM	Cc1cc(Nc2nccc(C(F)(F)F)n2)cc(-c2cnc(C3(O)CCN(C(=O)c4ccno4)C3)s2)c1 (centres unmarked) [54B-29]
< 100 nM	Cc1cc(Nc2nccc(C(F)(F)F)n2)cc(-c2cnc(C3(O)CCN(C(=O)C4(O)CCC4)C3)s2)c1 (centres unmarked) [54B-30]
< 100 nM	Cc1cc(Nc2nccc(C(F)(F)F)n2)cc(-c2cnc(C3(O)CCN(C4CCC(C(=O)O)C4)C3)s2)c1 (centres unmarked) [54B-32]
< 100 nM	COC(=O)C1CCC(N2CCC(O)(c3ncc(-c4cc(C)cc(Nc5nccc(C(F)(F)F)n5)c4)s3)C2)C1 (centres unmarked) [54B-34]
100 to 1000 nM	COC(=O)c1cccc(N2CCC(O)(c3ncc(-c4cc(C)cc(Nc5nccc(C(F)(F)F)n5)c4)s3)C2)c1 (centres unmarked) [54B-35]
< 100 nM	Cc1cc(Nc2nccc(C(F)(F)F)n2)cc(-c2cnc(C3(O)CC(C(=O)O)N(C(N)=O)C3)s2)c1 (centres unmarked) [54B-36]
< 100 nM	COC(=O)C1CC(O)(c2ncc(-c3cc(C)cc(Nc4nccc(C(F)(F)F)n4)c3)s2)CN1C(N)=O (centres unmarked) [54B-37]

Same assay, conditions: rhSYK Activity, Table 54C

IC50	Structure (SMILES)
< 100 nM	OC1(c2ncc(-c3cccc(Nc4nccc(C(F)(F)F)n4)c3)s2)CCNC1 (centres unmarked) [54C-1]

Same assay, conditions: rhSYK Activity, Table 61A

IC50	Structure (SMILES)
< 100 nM	Cc1cc(Nc2nccc(C(F)(F)F)n2)cc(-c2cnc(C(NS(C)(=O)=O)(C3CC3)C3CC3)s2)c1 [61A-1]
100 to 1000 nM	Cc1cc(Nc2nccc(C(F)(F)F)n2)cc(-c2cnc(C(N[S+]([O-])C(C)(C)C)(C3CC3)C3CC3)s2)c1 (centres unmarked) [61A-2]
< 100 nM	Cc1cc(Nc2nccc(C(F)(F)F)n2)cc(-c2cnc(C(C)(C)N)s2)c1 [61A-3]
< 100 nM	Cc1cc(Nc2nccc(C(F)(F)F)n2)cc(-c2cnc(C(C)(C)NS(C)(=O)=O)s2)c1 [61A-4]

Same assay, conditions: rhSYK Activity, Table 65

IC50	Structure (SMILES)
< 100 nM	Cc1cc(Nc2nccc(C(F)(F)F)n2)cc(-c2cnc(C3(NC(=O)NC(N)=O)COC3)s2)c1 [65-1]
< 100 nM	COc1ccnc(Nc2cc(C)cc(-c3cnc(C4(NC(=O)NC(N)=O)CCC4)s3)c2)n1 [65-2]
< 100 nM	Cc1cc(Nc2ncccn2)cc(-c2cnc(C3(NC(=O)NC(N)=O)CCC3)s2)c1 [65-3]
< 100 nM	Cc1cc(Nc2nccc(C3CC3)n2)cc(-c2cnc(C3(NC(=O)NC(N)=O)CCC3)s2)c1 [65-4]
< 100 nM	Cc1cc(Nc2nccc(C(F)(F)F)n2)cc(-c2cnc(C3(NC(=O)NC(N)=O)CCNC(=O)CC3)s2)c1 (centres unmarked) [65-6]
< 100 nM	Cc1cc(Nc2ncc(Cl)c(C(F)(F)F)n2)cc(-c2cnc(C3(NC(=O)NC(N)=O)CCNC(=O)CC3)s2)c1 (centres unmarked) [65-7]
< 100 nM	COc1nc(Nc2cc(C)cc(-c3cnc(C4(NC(=O)NC(N)=O)CCC4)s3)c2)ncc1Cl [65-8]

Same assay, conditions: rhSYK Activity, Table 74A

IC50	Structure (SMILES)
< 100 nM	Cc1cc(Nc2nccc(C3CC3)n2)cc(-c2cnc(C(C)(C)S(N)(=O)=O)s2)c1 [74A-13]
< 100 nM	COC(=O)CNS(=O)(=O)C(C)(C)c1ncc(-c2cc(C)cc(Nc3nccc(C(F)(F)F)n3)c2)s1 [74A-14]
< 100 nM	Cc1cc(Nc2nccc(C(F)(F)F)n2)cc(-c2cnc(C(C)(C)S(=O)(=O)NCC(=O)O)s2)c1 [74A-15]

Second part, the compound before the results:

Structure (SMILES)	IC50
Cc1cc(Nc2nccc(C(F)(F)F)n2)cc(-c2cnc(C(C)(C)S(N)(=O)=O)s2)c1 [74A-1]	< 100 nM
CC(C)(c1ncc(-c2cccc(Nc3nccc(C(F)(F)F)n3)c2)s1)S(C)(=O)=O [74A-2]	< 100 nM
CC(C)(c1ncc(-c2cccc(Nc3nccc(C(F)(F)F)n3)c2)s1)S(N)(=O)=O [74A-3]	< 100 nM
COc1ccnc(Nc2cc(C)cc(-c3cnc(C(C)(C)S(N)(=O)=O)s3)c2)n1 [74A-4]	< 100 nM
Cc1cc(Nc2ncc(F)c(C)n2)cc(-c2cnc(C(C)(C)S(N)(=O)=O)s2)c1 [74A-5]	< 100 nM
Cc1cc(Nc2ncc(F)c(C3CC3)n2)cc(-c2cnc(C(C)(C)S(N)(=O)=O)s2)c1 [74A-6]	< 100 nM
COc1nc(Nc2cc(C)cc(-c3cnc(C(C)(C)S(N)(=O)=O)s3)c2)ncc1Cl [74A-7]	< 100 nM
COc1nc(Nc2cc(C)cc(-c3cnc(C(C)(C)S(N)(=O)=O)s3)c2)ncc1F [74A-8]	< 100 nM
Cc1cc(Nc2ncc(Cl)c(C)n2)cc(-c2cnc(C(C)(C)S(N)(=O)=O)s2)c1 [74A-9]	< 100 nM
CC(C)(c1ncc(-c2cc(Nc3nccc(C(F)(F)F)n3)cc(C(F)F)c2)s1)S(N)(=O)=O [74A-11]	< 100 nM
Cc1cc(Nc2nccc(C)n2)cc(-c2cnc(C(C)(C)S(N)(=O)=O)s2)c1 [74A-12]	< 100 nM

Same assay, conditions: rhSYK Activity, Table 116A

IC50	Structure (SMILES)
1000 to 10000 nM	Cc1cc(Nc2nc(C)cc(C)n2)cc(-c2cnc([C@]3(O)CC[C@@H](O)CC3)s2)c1 [116A-1]
< 100 nM	Cc1cc(Nc2ncc(F)c(C)n2)cc(-c2cnc([C@]3(O)CC[C@@H](C(=O)O)CC3)s2)c1 [116A-2]
< 100 nM	Cc1cc(Nc2nccc(C(C)C)n2)cc(-c2cnc([C@]3(O)CC[C@@H](C(=O)O)CC3)s2)c1 [116A-3]
< 100 nM	Cc1cc(Nc2ncc(Cl)c(C)n2)cc(-c2cnc([C@]3(O)CC[C@@H](C(=O)O)CC3)s2)c1 [116A-4]
< 100 nM	COc1nc(Nc2cc(C)cc(-c3cnc([C@]4(O)CC[C@@H](C(=O)O)CC4)s3)c2)ncc1F [116A-5]
< 100 nM	Cc1cc(Nc2nccc(C(C)(C)C)n2)cc(-c2cnc([C@]3(O)CC[C@@H](C(=O)O)CC3)s2)c1 [116A-6]
< 100 nM	Cc1cc(Nc2nccc(OC(C)C)n2)cc(-c2cnc(C3(O)CCC(C(=O)O)CC3)s2)c1 (centres unmarked) [116A-7]
< 100 nM	COc1nc(Nc2cc(C)cc(-c3cnc(C4(O)CCC(C(=O)O)CC4)s3)c2)ncc1Cl (centres unmarked) [116A-8]
< 100 nM	Cc1cc(Nc2nccc(C(C)F)n2)cc(-c2cnc(C3(O)CCC(C(=O)OC(C)(C)C)CC3)s2)c1 (centres unmarked) [116A-10]
100 to 1000 nM	COc1nc(Nc2cc(C)cc(-c3cnc(C4(O)CCC(C(=O)OC(C)(C)C)CC4)s3)c2)ncc1F (centres unmarked) [116A-11]
100 to 1000 nM	Cc1cc(Nc2nccc(C(C)(C)C)n2)cc(-c2cnc(C3(O)CCC(C(=O)OC(C)(C)C)CC3)s2)c1 (centres unmarked) [116A-12]
< 100 nM	Cc1cc(Nc2nccc(C(F)(F)C(F)(F)F)n2)cc(-c2cnc(C3(O)CCC(C(=O)O)CC3)s2)c1 (centres unmarked) [116A-13]
100 to 1000 nM	COc1nc(Nc2cc(C)cc(-c3cnc(C4(O)CCC(C(=O)OC(C)(C)C)CC4)s3)c2)ncc1Cl (centres unmarked) [116A-14]
100 to 1000 nM	Cc1cc(Nc2nccc(-c3cccs3)n2)cc(-c2cnc(C3(O)CCC(C(=O)OC(C)(C)C)CC3)s2)c1 (centres unmarked) [116A-15]
< 100 nM	Cc1cc(Nc2nccc(C(F)F)n2)cc(-c2cnc(C3(O)CCC(C(=O)O)C(C)C3)s2)c1 (centres unmarked) [116A-18]
< 100 nM	Cc1cc(Nc2nccc(C(C)(C)C)n2)cc(-c2cnc(C3(O)CCC(C(=O)O)C(C)C3)s2)c1 (centres unmarked) [116A-20]
< 100 nM	Cc1cc(Nc2nccc(OC(C)C)n2)cc(-c2cnc(C3(O)CCC(C(=O)O)C(C)C3)s2)c1 (centres unmarked) [116A-21]
100 to 1000 nM	COC(=O)C1CCC(O)(c2ncc(-c3cc(C)cc(Nc4ncc(F)cn4)c3)s2)CC1(C)C (centres unmarked) [116A-22]
100 to 1000 nM	Cc1cc(Nc2ncc(F)c(O)n2)cc(-c2cnc(C3(O)CCC(C(=O)O)C(C)(C)C3)s2)c1 (centres unmarked) [116A-23]
< 100 nM	Cc1cc(Nc2nccc(C(=O)O)n2)cc(-c2cnc([C@@]3(O)CC[C@H](C(=O)O)C(C)(C)C3)s2)c1 [116A-24]
< 100 nM	COC(=O)C1CCC(O)(c2ncc(-c3cc(C)cc(Nc4ncc(F)c(C)n4)c3)s2)CC1(C)C (centres unmarked) [116A-25]
< 100 nM	Cc1cc(Nc2ncc(Cl)c(C)n2)cc(-c2cnc([C@@]3(O)CC[C@H](C(=O)O)C(C)(C)C3)s2)c1 [116A-27]
< 100 nM	COc1nc(Nc2cc(C)cc(-c3cnc(C4(O)CCC(C(=O)O)C(C)(C)C4)s3)c2)ncc1F (centres unmarked) [116A-28]
< 100 nM	Cc1cc(Nc2nccc(C(F)F)n2)cc(-c2cnc([C@@]3(O)CC[C@H](C(=O)O)C(C)(C)C3)s2)c1 [116A-30]

Same assay, conditions: rhSYK Activity, table after Example 69

IC50	Structure (SMILES)
100 to 1000 nM	Cc1cc(Nc2nccc(C(=O)N3CCOCC3)n2)cc(-c2cnc(C(C)(O)C(F)(F)F)s2)c1 (centres unmarked) [69-1]
